pEC50, pIC50: −log10 of the molar value.
How the values were obtained:
[1] = Inhibition of p53/HDM2 interaction
[2] = tested on: NCI-H460; assay: Cytotoxicity against human H460 cells at 40 uM relative to control; type: functional
[3] = Inhibition of human biotin-labelled p53/GST-tagged Hdm2 interaction preincubated for 20 mins before GST-tagged Hdm2 protein addition measured after 1 hr by HTR-FRET based competition assay

| Compound | pIC50 [1] | Activity [2] [%] | pEC50 [3] |
| --- | --- | --- | --- |
| CCCCCCCC[C@H]1NC(=O)[C@@H](CC(C)C)NC(=O)[C@H]([C@@H](C)O)NC(=O)[C@@H](CC(C)C)NC(=O)[C@@H](CC(N)=O)NC(=O)[C@H](CC(N)=O)NC(=O)[C@H](C)NC(=O)[C@H]([C@@H](C)O)NC(=O)[C@H](CCCN2C=C3C(=O)[C@@](C)(OC(=O)CCC)C(=O)C(Cl)=C3[C@@H](O)[C@]23CCCO3)NC1=O (relative stereo) | 5.34 |  |  |
| C=C(C(=O)O)C(CCCCCC)C(=O)O (centres undefined) [HEXYLITACONIC ACID] | 3.64 |  |  |
| CCC[C@@H](C)[C@H](O)[C@H](C)[C@@H](O)[C@@H](C)[C@H](Cc1nc(C2=N[C@@](C)(C3=N[C@@](C)(C(=O)N[C@H]([C@@H](O)[C@@H](C)C(=O)O)[C@@H](C)CC)CS3)CS2)cs1)OC [HOIAMIDE D] |  | 16 | 5.35 |

— ChEMBL document CHEMBL1932944, “Hoiamide D, a marine cyanobacteria-derived inhibitor of p53/MDM2 interaction” (Bioorg Med Chem Lett, 2012)
